According to US6812377B2, “Genetic engineering of syringyl-enriched lignin in plants” (Board of Control of Michigan Technological University, priority 2000, dated 2004):

Assays:
[1] = biological target: T1, PtCAD (recombinant coniferyl alcohol dehydrogenase, GenBank AF217957, C-terminal His tag, expressed in E. coli BL21(DE3)) (Populus tremuloides, UniProt Q9M632); assay: Inhibition kinetics of PtCAD: PtCAD-mediated reduction of sinapaldehyde in the presence of coniferaldehyde, HPLC-UV/MS (FIG. 6); format: biochemical, Populus tremuloides (quaking aspen); conditions: coniferaldehyde (1 to 5 μM) as inhibitor of PtCAD-mediated reduction of sinapaldehyde (1 to 200 μM); 500 μM NADPH; 1.2 μg purified recombinant PtCAD; pH 8.0; 4 min; 30° C.; read-out: apparent inhibition constant (Ki)
T1 sequence (Q9M632 1-357): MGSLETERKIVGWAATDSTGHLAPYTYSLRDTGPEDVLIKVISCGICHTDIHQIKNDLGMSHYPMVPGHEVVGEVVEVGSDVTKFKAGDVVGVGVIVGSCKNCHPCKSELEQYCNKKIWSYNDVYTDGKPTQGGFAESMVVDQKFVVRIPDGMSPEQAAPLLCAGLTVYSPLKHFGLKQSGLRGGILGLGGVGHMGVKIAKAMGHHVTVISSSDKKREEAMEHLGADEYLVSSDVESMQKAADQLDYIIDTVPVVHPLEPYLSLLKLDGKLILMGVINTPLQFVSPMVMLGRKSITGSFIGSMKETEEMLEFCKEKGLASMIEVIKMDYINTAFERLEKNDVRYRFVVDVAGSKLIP
Description: FIG. 6 illustrates inhibition kinetics of PtCAD and PtSAD;
A guaiacyl pathway gene encoding coniferyl alcohol dehydrogenase (CAD, FIG. 1) from Populus tremuloides (GenBank #AF217957) was first cloned. This cDNA was designated as PtCAD (GenBank #AF217957). E. coli-expressed recombinant PtCAD protein was characterized for its catalytic activity with coniferaldehyde and sinapaldehyde. Because monolignol biosynthetic pathway intermediates are present together in lignifying tissues (Osakabe et al., 1999; Li et al. 2000), the PtCAD enzyme activity with a mixture of coniferaldehyde and sinapaldehyde was assayed. As shown in FIG. 5 (a) and (c), the reaction mixture was separated by HPLC after the enzyme reaction. […] Thus, PtCAD has a specific catalytic reaction function with coniferaldehyde for the biosynthesis of guaiacyl monolignol, coniferyl alcohol (FIG. 1). […]
For normal and inhibition kinetic analyses, the reaction time was 4 min and pH was 8.0 for PtCAD (1.2 μg of purified recombinant protein) and 7.0 for PtSAD (0.1 μg). […] All reactions were terminated by the addition of 10 μL of 6 N HCI (to bring the pH to 2) and 500 ng of internal standard o-coumaric acid and analyzed by HPLC-UV/MS. […]

[2] = test system: PtSAD recombinant protein; assay: SAD enzyme activity assay, single and mixed substrates (HPLC-MS); format: biochemical, Populus tremuloides; conditions: mixture of coniferaldehyde and sinapaldehyde, pH 7.0
Method: After 10 min at 30° C., the reaction was terminated and extracted with 0.5 ml ethyl acetate. The extraction was repeated 4 times and the combined ethyl acetate was evaporated and dissolved in the HPLC mobile phase for LC-MS identification and quantitation of the reaction products as we did before (Osakabe et al., 1999; Li et al. 2000). […] The SAD reactions with mixed substrates, sinapaldehyde and coniferyl aldehyde, were therefore conducted at the optimal pH 7.0 under above-described conditions. […] To characterize the enzyme pH optima, the substrate and recombinant PtCAD or PtSAD protein concentrations described above were used in sodium phosphate buffers, pH 5 to 8.5. All reactions were for 10 minutes at 30° C. An aliquot of 100 μL of reaction mixture was injected directly onto a Supelcosil LC-ABZ column (15 cm×4.6 mm×5 μm; Supelco, Bellefonte, Pa.) with automatic sample injection and separated isocratically with a Hewlett-Packard (HP) 1100 liquid chromatography system at 40° C. and a flow rate of 0.25 mL/min. […] The reaction products were identified and confirmed by comparing the ion fragmentation patterns of the product and the authentic standard in MS scanning mode at 70 V. The product quantity and Km, Vmax, kcat, and apparent inhibition constant (Ki) values (means±SE) were determined as described (Osakabe et al., 1999; Li et al., 2000). The results of the inhibition kinetics for both the CAD enzyme (i.e. Table 2) and the SAD enzyme (i.e., Table 3) using a variety of substrates are illustrated below.

## COc1cc(/C=C/C=O)ccc1O [Coniferaldehyde]
[1]
  Ki: 1700 nM
[2]
  reaction of PtSAD with the substrate in a mixture: would not react
